Laboratory results taken from patent US20230054563A1, “COMPOSITION AND METHODS OF MANUFACTURE” (Phoenix Eagle Company Pty Ltd, priority 2019, published 2023).
“Also recorded” adds a separate entry of the source.

B1: pure latex papain: Pure latex papain, reference for specific L-BApNA activity (protein, UniProt P00784 134-345, looked up)
Papain: IPEYVDWRQKGAVTPVKNQGSCGSCWAFSAVVTIEGIIKIRTGNLNEYSEQELLDCDRRSYGCNGGYPWSALQLVAQYGIHYRNTYPYEGVQRYCRSREKGPYAAKTDGVRQVQPYNEGALLYSIANQPVSVVLEAAGKDFQLYRGGIFVGPCGNKVDHAVAAVGYGPNYILIKNSWGTGWGENGYIRIKRGTGNSYGVCGLYTSSFYPVKN

How the values were obtained:
[1] = tested on: cysteine protease(s) and serine protease(s) in OPAL B filtrate; test: Overlay zymography of OPAL B filtrate with L-BApNA membrane, with or without inhibitors; type: biochemical, Carica papaya; settings: inhibitor on nitrocellulose membrane; upper band cysteine, lower band serine protease(s)
Description: Overlay-zymography was carried out according to the procedure in Vinokurov et al. (2005) with some modifications (FIG. 1). Briefly, a nitrocellulose membrane was soaked in a 1.2 mg/mL L-BApNA solution in water. The membrane was subsequently left to air dry for 5 minutes and then laid on top of the native PAGE gel after running the samples through, which were slightly soaked in their respective running buffers. Two additional experiments were carried out in which membranes were soaked in […] R-alanine, 0.14 M acetic acid, pH 4.3, with either 10 mM DTT or 25 mM cysteine. All zymographies were then incubated in a closed chamber at 37° C. for 30-60 min. The membrane was removed and again left to dry for 5 minutes and the p-nitroaniline was visualized by diazotization.
Diazotization was performed by following the protocol detailed in Hosseininaveh et al. (2009). […]
OPAL B filtrate appears to be a complex mixture of many proteins. Therefore, to individually visualize the protease activities that were detected by spectrophotometry assays, we used a technique called overlay zymography. […]

[2] = tested on: active serine protease in OPAL B filtrate; test: Serine protease reactivity probe, SDS PAGE western blotting of OPAL B filtrate; type: biochemical, Carica papaya
Text: To establish which of the different bands corresponded to a proteolytically active form of subtilase in the OPAL B filtrate, we used a reactivity probe, which specifically labels active serine proteases via a fluorosulfonate group linked to biotin. This reactivity probe can then be visualized on a regular SDS PAGE gel via western blotting technique, using streptavidin-conjugated enzymes such as alkaline phosphatase. Using this technique allowed the visualization of the active serine protease band inhibited by AEBSF treatment at around 50 kDa as shown in FIG. 11.

[3] = tested on: proteolytic activity of OPAL B filtrate (cysteine and serine proteases); test: Effect of protease inhibitors on L-BApNA proteolytic activity of OPAL B filtrate; type: biochemical, Carica papaya; settings: inhibitor added to OPAL B filtrate
Description: (§1) A 1.5 mM stock solution of L-BApNA (B-3133 sigma) was prepared by dissolving 63 mg of L-BApNA in 1.5 ml dimethyl sulfoxide (DMSO), and then made up to 100 ml with water. Hydrolysis of the L-BApNA at the bond between the arginine and the p-nitroaniline moieties releases the chromophore p-nitroaniline, which can be detected by spectroscopy at an absorbance of 410 nm in International Units (IU). IU is defined as the amount of enzyme that causes an increase in absorbance of 0.01 units/min under excess substrate conditions (zero order kinetics). Solids specific activity is expressed in IU/mg, while in the case of liquid formulations, the activity is expressed in IU/mL.
(§2) We therefore previously concluded that the protease activity in OPAL A is essentially due only to the presence of active cysteine proteases. To determine the effect of omitting the heat treatment step, the protease activity in both OPAL A and OPAL B filtrates was tested using an L-BApNA assay. After 10 minutes, E-64 inhibitor was added.
To better understand the non-thiol dependent or non-cysteine proteases in the OPAL B filtrate, enzymatic assays were carried out initially using a Protease Inhibitor Cocktail (PIC) (sigma P2714), containing all the essential protease inhibitors (see Table 3).

[4] = tested on: cysteine protease activity of OPAL A; test: Effect of E-64 on protease activity of OPAL A; type: biochemical, Carica papaya; settings: previously established, unpublished data
Description: as §2

[5] = L-BApNA proteolytic activity assay (A410); type: biochemical
Description: as §1
To determine the optimal substrate concentration to maintain zero order kinetics throughout experiments, a series of titration runs were carried out with a range of substrate concentrations. The minimum concentration thus found is […] or 1:6 dilution of the stock 1.5 mM solution. […] Phosphate buffer at pH 6 was used in the L-BApNA assays because it gave the highest enzymatic activity reading compared to other buffers.
Hydrolysis of L-BApNA in the presence of protease, at the bond between the arginine and p-nitroaniline moieties, releases the chromophore p-nitroaniline, which can then be detected by spectroscopy at a wavelength of 410 nm. […]

Molecule | inhibition of zymography bands of OPAL B [1] | effect on active serine protease band at around 50 kDa labelled by reactivity probe [2] | inhibition of L-BApNA proteolytic activity of OPAL B filtrate [3] | inhibition of cysteine protease activity of OPAL A [4] | activity of pure latex papain [5]
NCCc1ccc(S(=O)(=O)F)cc1 [AEBSF] | inhibition of lower band | inhibited | able to halt proteolytic activity |  | 
CC(C)C[C@H](NC(=O)[C@H]1C[C@@H]1C(=O)O)C(=O)NCCCCNC(=N)N [E-64, (1S,2S)-2-(((S)-1-((4-Guanidinobutyl)amino)-4-methyl-1-oxopentan-2-yl)carbamoyl) cyclopropane carboxylic acid] | complete inhibition of upper band |  | did not result in complete inhibition of activity; also recorded: able to halt proteolytic activity | essentially abolished | 
B1 |  |  |  |  | around 10 IU/mg
